Measurements from patent publication US9844535B2, “SHP2 inhibitors and methods of treating autoimmune and/or glomerulonephritis-associated diseases using SHP2 inhibitors” (Indiana University Research and Technology Corporation, priority 2013, dated 2017).

Assays:
ERK and AKT signaling = experiment: Immunoblot of ERK/AKT signaling in tissue lysates of inhibitor-treated MRL/lpr mice; type: in vivo, mouse; details: 7.5 mg/kg daily for 4 weeks
Procedure: Briefly, female MRL/MpJ-fas lpr (MRL/lpr), MRL/Mpj and C57BL/6J mice were purchased from the Jackson Laboratory (Bar Harbor, Me.). For experiments, mice within each group were ip injected with either vehicle (DMSO) or the SHP2 inhibitor (7.5 mg/kg/per day). […] Body weight was measured daily and treatment dosage was adjusted accordingly. At the end of the treatment period, mice were sacrificed with CO2 exsanguination and SLE targeted organs were removed. For each mouse, spleen, kidney, and heart weight were calculated. In addition, total animal body weight and tibia length were measured. Peripheral blood/serum was also collected for use in the cytokine assays described below.
Tissues (spleen, kidney, heart) isolated from either vehicle (DMSO) treated or SHP2 inhibitor treated WT C57/B16, MRL/MpJ, or MRL/lpr female mice were dissected, perfused in PBS, and immediately frozen in liquid N2. Whole-cell lysates were prepared by homogenizing the tissue in radioimmunoprecipitation (RIPA) buffer (25 mmol/l Tris-HCl [pH 7.4], 150 mmol/l NaCl, 0.1% SDS, 1% NP-40, 0.5% sodium deoxycholate, 5 mmol/l EDTA, 1 mmol/l NaF, 1 mmol/l sodium orthovanadate, and a protease cocktail) at 4° C., followed by clarification at 14,000 g. […] Bands were visualized with enhanced chemiluminescence and quantified by densitometry (developed by Wayne Rasband; ImageJ 1.41 software, http://rsbweb.nih.gov/ij/). […]

[1] = system: MRL/lpr mouse kidney immune cells; experiment: Flow cytometry of immune cells infiltrating the kidney; type: in vivo; details: MRL/lpr mice vs vehicle
Procedure: Kidney, spleen, lung, and axillary lymph nodes were excised from either vehicle or drug-treated mice, and single cell suspensions were obtained by teasing the organs through a nylon mesh. Briefly, kidneys were cut into small pieces and homogenized on a 70 μm nylon mesh in 5 ml of Hank's Balanced Salt Solution (HBSS) buffer. All of the homogenized tissues and cells were transferred to new 50 ml tubes and digested with collagenase type 4 (100 ug/ml) (Worthington Biochemical Corp., Freehold, N.J.) in HBSS for 30 minutes to 2 hours (37° C.) on a rotating shaker. After digestion, the cells were centrifuged at 2000 rpm for 10 minutes, and the kidney cell isolates were generated, which included infiltrated immune cell subsets.
To identify immune cell subsets, isolated cells from tissues were immunostained with mouse antibodies targeted against CD3E (145-2C11, BioLegend, San Diego, Calif.), CD4 (GK1.5, BioLegend), CD8 (53-6.7, eBioscience, San Diego, Calif.), CD45 (30-F11, eBioscience), CD 19 (6125, BioLegend), CD11b (M1170, BioLegend), TCRαβ (H57-597, BioLegend), CD44 (IM7, BioLegend), B220 (RA3-6B2, B.D. […], BD Biosciences, San Jose Calif.), CD138 (281-2, BioLegend), CD38 (CD28.2, BioLegend), Gr-1 (RB6.805, eBioscience), CD62L (DREG-56, BioLegend), and CD25 (PC61, BioLegend) for 30 minutes at 4° C. Samples were acquired on a LSR II flow cytometer (BD Biosciences) and the percentage of each sub-population of cells (B, T, monocytes, macrophage and neutrophils) was assessed by FlowJo [version 7.2.2 (Tree Star)]. Total cell numbers were counted using a hemocytometer. Absolute cell numbers for each sub-population were calculated based on the percentage of each population.
B cells, T cells, macrophage and neutrophils from the MRL/lpr inhibitor-treated and vehicle-treated mouse kidneys of Example 9 were isolated.

Structure (SMILES): Cn1c(-c2cccc(NC(=O)C(=O)Nc3ccc(-c4ccsc4)cc3)c2)c(I)c2cc(C(=O)O)c(O)cc21 [11a-1]
- downstream ERK and AKT signaling in tissue lysates (ERK and AKT signaling): reversed aberrant downstream ERK and AKT signaling
- B cells in kidney [1]: no discernable differences
- infiltrating T cells in the SLE kidney [1]: significantly reducing the overall number of CD4, CD8, and double-negative T cells
- infiltrating neutrophils and macrophages in kidney [1]: significant reduction in numbers of infiltrating neutrophils and macrophages
